According to the supplement of paper PMC10883282:

Key:
Assay in all cases: relative viability vs DMSO control (72 h) (fraction); higher = more viable cells
A204 = system: A204
Outline: (§1)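 Densities for seeding sarcoma cell lines into 384-well plates were set to give 80–90% confluence. After 24 h, 2.5 µl of serially diluted compound from source plates of 10 mM to 0.0002 mM went in, and plates stayed 72 h at 37 °C in 5% CO2 with 0.1% DMSO vehicle and a 5 µM positive control. Percent growth from ATPLite readings, averaged over up to triplicate wells, served as relative viability, rescaled so 1 means full and 0 means none.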

G401 = system: G401
Outline: as §1

HS729 = system: HS729
Outline: as §1

KHOS-240S = system: KHOS-240S
Outline: as §1

MES-SA = system: MES-SA
Outline: as §1

RD = system: RD
Outline: as §1

SK-ES-1 = system: SK-ES-1
Outline: as §1

SK-LMS-1 = system: SK-LMS-1
Outline: as §1

SW1353 = system: SW1353
Outline: as §1

SW872 = system: SW872
Outline: as §1

SW982 = system: SW982
Outline: as §1

VA-ES-BJ = system: VA-ES-BJ
Outline: as §1

COc1cc2ncnc(Nc3ccc(F)c(Cl)c3)c2cc1OCCCN1CCOCC1 [Gefitinib]
Conditions | relative viability
A204, 0.00017 µM | 1.06
A204, 0.00051 µM | 1.08
A204, 0.00152 µM | 1.09
A204, 0.00457 µM | 1.06
A204, 0.01372 µM | 1.05
A204, 0.04115 µM | 1.1
A204, 0.1235 µM | 1.1
A204, 0.3704 µM | 1.03
A204, 1.111 µM | 1.04
A204, 3.333 µM | 0.876
A204, 10 µM | 0.448
G401, 0.00017 µM | 1.01
G401, 0.00051 µM | 1
G401, 0.00152 µM | 0.9788
G401, 0.00457 µM | 0.987
G401, 0.01372 µM | 1
G401, 0.04115 µM | 0.996
G401, 0.1235 µM | 1
G401, 0.3704 µM | 0.993
G401, 1.111 µM | 0.984
G401, 3.333 µM | 0.835
G401, 10 µM | 0.582
HS729, 0.00017 µM | 0.9733
HS729, 0.00051 µM | 0.97
HS729, 0.00152 µM | 1.03
HS729, 0.00457 µM | 0.947
HS729, 0.01372 µM | 1.01
HS729, 0.04115 µM | 1.03
HS729, 0.1235 µM | 1
HS729, 0.3704 µM | 1.01
HS729, 1.111 µM | 0.958
HS729, 3.333 µM | 0.853
HS729, 10 µM | 0.621
KHOS-240S, 0.00017 µM | 1.01
KHOS-240S, 0.00051 µM | 1.05
KHOS-240S, 0.00152 µM | 1.01
KHOS-240S, 0.00457 µM | 1.05
KHOS-240S, 0.01372 µM | 1.03
KHOS-240S, 0.04115 µM | 1.04
KHOS-240S, 0.1235 µM | 1
KHOS-240S, 0.3704 µM | 1.03
KHOS-240S, 1.111 µM | 1.01
KHOS-240S, 3.333 µM | 0.921
KHOS-240S, 10 µM | 0.318
MES-SA, 0.00017 µM | 0.97
MES-SA, 0.00051 µM | 0.948
MES-SA, 0.00152 µM | 0.959
MES-SA, 0.00457 µM | 0.952
MES-SA, 0.01372 µM | 0.937
MES-SA, 0.04115 µM | 0.962
MES-SA, 0.1235 µM | 0.969
MES-SA, 0.3704 µM | 0.969
MES-SA, 1.111 µM | 0.925
MES-SA, 3.333 µM | 0.739
MES-SA, 10 µM | 0.4455
RD, 0.00017 µM | 1.03
RD, 0.00051 µM | 1.04
RD, 0.00152 µM | 1.03
RD, 0.00457 µM | 1.04
RD, 0.01372 µM | 0.995
RD, 0.04115 µM | 1.01
RD, 0.1235 µM | 1.03
RD, 0.3704 µM | 1.01
RD, 1.111 µM | 1.05
RD, 3.333 µM | 1.05
RD, 10 µM | 0.18
SK-ES-1, 0.00017 µM | 0.989
SK-ES-1, 0.00051 µM | 0.988
SK-ES-1, 0.00152 µM | 1
SK-ES-1, 0.00457 µM | 1.01
SK-ES-1, 0.01372 µM | 0.9857
SK-ES-1, 0.04115 µM | 1
SK-ES-1, 0.1235 µM | 1.01
SK-ES-1, 0.3704 µM | 0.958
SK-ES-1, 1.111 µM | 0.864
SK-ES-1, 3.333 µM | 0.599
SK-ES-1, 10 µM | 0.168
SK-LMS-1, 0.00017 µM | 1.07
SK-LMS-1, 0.00051 µM | 1.09
SK-LMS-1, 0.00152 µM | 1.05
SK-LMS-1, 0.00457 µM | 1.08
SK-LMS-1, 0.01372 µM | 1.07
SK-LMS-1, 0.04115 µM | 1.08
SK-LMS-1, 0.1235 µM | 1.06
SK-LMS-1, 0.3704 µM | 1.04
SK-LMS-1, 1.111 µM | 1.05
SK-LMS-1, 3.333 µM | 0.902
SK-LMS-1, 10 µM | 0.108
SW872, 0.00017 µM | 1
SW872, 0.00051 µM | 1.02
SW872, 0.00152 µM | 1.05
SW872, 0.00457 µM | 1.026
SW872, 0.01372 µM | 1.03
SW872, 0.04115 µM | 1.02
SW872, 0.1235 µM | 1.03
SW872, 0.3704 µM | 1.04
SW872, 1.111 µM | 1.01
SW872, 3.333 µM | 0.868
SW872, 10 µM | 0.476
SW982, 0.00017 µM | 0.997
SW982, 0.00051 µM | 1.01
SW982, 0.00152 µM | 1.01
SW982, 0.00457 µM | 1
SW982, 0.01372 µM | 1
SW982, 0.04115 µM | 1.012
SW982, 0.1235 µM | 0.998
SW982, 0.3704 µM | 0.989
SW982, 1.111 µM | 0.957
SW982, 3.333 µM | 0.675
SW982, 10 µM | 0.268
SW1353, 0.00017 µM | 1.03
SW1353, 0.00051 µM | 1.073
SW1353, 0.00152 µM | 0.999
SW1353, 0.00457 µM | 1.02
SW1353, 0.01372 µM | 1.02
SW1353, 0.04115 µM | 0.979
SW1353, 0.1235 µM | 0.93
SW1353, 0.3704 µM | 0.903
SW1353, 1.111 µM | 0.928
SW1353, 3.333 µM | 0.892
SW1353, 10 µM | 0.168
VA-ES-BJ, 0.00017 µM | 1.05
VA-ES-BJ, 0.00051 µM | 1.05
VA-ES-BJ, 0.00152 µM | 1.074
VA-ES-BJ, 0.00457 µM | 1.04
VA-ES-BJ, 0.01372 µM | 1.04
VA-ES-BJ, 0.04115 µM | 1.05
VA-ES-BJ, 0.1235 µM | 1.05
VA-ES-BJ, 0.3704 µM | 1.06
VA-ES-BJ, 1.111 µM | 1.06
VA-ES-BJ, 3.333 µM | 1.04
VA-ES-BJ, 10 µM | 0.75
